EC50 data for 23 molecules are collected here from US20250002448A1, “ALLOSTERIC MODULATORS OF NICOTINIC ACETYLCHOLINE RECEPTORS” (MERCK SHARP & DOHME LLC, priority 2021, published 2025).

The test has as its target T1, human a7 nAChR (Homo sapiens, UniProt P36544).
T1 construct: catalogue number not given
Put plainly: automated patch-clamp electrophysiology functional assay (Assay A), IonFlux HT. The class given is cell-based. The conditions noted are these: HEK cell line stably expressing human RIC-3 and human a7, whole-cell population patch, 40 μM acetylcholine. The protocol: The a7 nAChR positive allosteric modulator (PAM) activity of the present compounds may be tested using assays known in the art. The a7 nAChR PAMs described herein have activities in an automated patch-clamp electrophysiology functional assay as described in the examples. The assay was performed using the lonFlux HT in a whole-cell, population patch configuration. See Golden et al. Assay Drug Dev. Technol. (2011) 9:608-619. The compounds were assessed for their ability to modulate the function of the human a7 nAChR stably expressed in a HEK cell line both in the presence, and in the absence of the natural a7 agonist acetylcholine. By performing a series of such measurements at different concentrations, the effective concentration of the a7 nAChR PAMs (EC50) was determined. See Spencer et al. Assay Drug Dev. Technol. (2012) 10:313-324.
Direct activation of a7 (agonism), and potentiation of acetylcholine-evoked a7 currents was determined as follows:
Automated patch-clamp electrophysiology was performed using the IonFlux HT (Fluxion Biosciences Inc., San Francisco, CA) in the whole-cell, population patch configuration. Test compounds were assessed for their ability to modulate the function of the a7 nicotinic acetylcholine receptor both in the presence, and in the absence of the natural a7 agonist acetylcholine. A HEK cell line stably expressing both human RIC-3 and human a7 (PrecisION hnAChR a7/RIC-3. Eurofins Pharma, St. Charles, MO) was cultured in 175 cm^2 triple-layer tissue culture flasks to no more than 90% confluency in DMEM/F-12 growth media supplemented with 10% heat-inactivated fetal bovine serum, 1% non-essential amino acids. 0.625 μg/mL Puromycin, and 400 μg/mL Geneticin. Immediately prior to assay, cells were detached by first aspirating growth media, rinsing with Dulbecco's phosphate buffered saline, and then adding 10 mL of Accutase (Innovative Cell Technologies, San Diego, CA) to the flask and then incubating at 37° C. for 5 minutes. Detached cells were then recovered by the addition of 40 mL of CHO-serum-free media supplemented with 25 mM HEPES, and rocked gently in a 50 ml conical tube for 20 minutes prior to patch-clamp assay. After recovery, cells were pelleted by centrifugation at 1.000 RPM for 1 minute in a compact bench top centrifuge: recovery media was aspirated and cells were resuspended in external recording solution (150 mM NaCl, 5 mM KCl, 2 mM CaCl2), 1 mM MgCl2, 10 mM HEPES, 12 mM dextrose) to a density of 5.0×10^6 cells/mL. The cell suspension was added to the cell inlet wells on an IonFlux HT population patch plate which had previously been rinsed and primed with deionized H2O. Test compounds were serially diluted in DMSO and then resuspended to the final test concentration in external recording solution, with, or without 40 μM acetylcholine added to the external recording solution: test compounds were then transferred to the IonFlux HT population patch plate. Internal recording solution (110 mM TrisPO4, 28 mM TrisBase, 0.1 mM CaCl2), 2 mM MgCl2, 11 mM EGTA, 4 mM MgATP) was added to the internal recording solution inlet wells on the IonFlux HT patch plate previously loaded with cells and test compounds, and the plate loaded into the lonFlux HT instrument. A protocol was executed on the IonFlux HT to trap the cells, break into the cells, and establish the whole-cell recording configuration: cells were voltage-clamped at a holding potential of −60 mV for the duration of the experiment, all experiments were conducted at room temperature, and the IonFlux HT injection pressure was 8 psi for solution applications. Upon establishing the whole-cell configuration, external recording solution was perfused into the recording chambers for 120 seconds and then 40 μM acetylcholine was applied for 1 second and immediately washed off with external recording solution for 60 seconds. […]
(Patch clamp records ionic current or voltage across a cell membrane.)

Read-outs that look alike come from different tables or passages of the source.

T1 sequence (P36544 23-502): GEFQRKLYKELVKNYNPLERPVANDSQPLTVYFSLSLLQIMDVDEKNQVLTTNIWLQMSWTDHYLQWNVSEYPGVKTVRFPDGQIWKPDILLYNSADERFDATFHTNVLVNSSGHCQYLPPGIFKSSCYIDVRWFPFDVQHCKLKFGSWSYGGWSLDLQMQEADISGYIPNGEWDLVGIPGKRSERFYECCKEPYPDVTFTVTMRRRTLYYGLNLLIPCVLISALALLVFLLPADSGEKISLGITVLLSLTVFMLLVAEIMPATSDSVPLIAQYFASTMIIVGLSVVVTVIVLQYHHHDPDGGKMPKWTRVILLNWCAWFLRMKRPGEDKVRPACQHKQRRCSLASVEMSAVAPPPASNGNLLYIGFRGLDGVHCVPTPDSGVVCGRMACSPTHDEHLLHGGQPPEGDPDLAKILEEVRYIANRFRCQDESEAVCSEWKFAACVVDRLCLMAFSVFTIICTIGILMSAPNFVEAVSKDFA

In the case of `CCOc1ccc([C@H](COC)NC(=O)C2CC23CCc2ccccc23)cc1` (mixture of isomers) [Example 1, N-[(1R)-1-(4-Ethoxyphenyl)-2-Methoxy-Ethyl[-2′,3′-Dihydrospiro]Cyclopropane-1,1′-Indene]-2-Carboxamide, Mixture a], the EC50 (read-out: a7 nAChR EC50) was determined as 4500 nM and the EC50 (read-out: α7 nAChR Potency) lay in the range of 500 to 5000 nM.
The corresponding values for `CCOc1ccc([C@H](COC)NC(=O)C2CC23CCc2ccccc23)cc1` (mixture of isomers) [Example 2, N-[(1R)-1-(4-Ethoxyphenyl)-2-Methoxy-Ethyl]-2′,3′-Dihydrospiro[Cyclopropane-1,1′-Indene]-2-Carboxamide, Mixture B] are 420 nM and 100 to 500 nM.
The corresponding values for `O=C(NC1(c2ccc(F)cc2)COC1)C1CC12CCc1ccccc12` (racemic) [Example A1, N-[3-(4-Fluorophenyl)oxetan-3-yl]-2′, 3′-dihydrospiro[cyclopropane-1,1′-indene]-2-carboxamide] are 3200 nM and 500 to 5000 nM.
Regarding `COc1ccc(C2(NC(=O)[C@@H]3C[C@]34COc3ccc(F)cc34)CC2)cn1` (relative stereo) [Example A16, cis-5-Fluoro-N-[1-(6-methoxypyridin-3-yl)cyclopropyl]-2H-spiro[1-benzofuran-3,1′-cyclopropane]-2′-carboxamide], the EC50 (read-out: α7 nAChR Potency) fell in the range of 500 to 5000 nM.
For the molecule `CCOc1ccc([C@H](COC)NC(=O)C2CC23CCc2ccc(F)cc23)cc1` (single isomer, unassigned) [Example A2], the EC50 runs as follows: (read-out: a7 nAChR EC50) 1600 nM; (read-out: α7 nAChR Potency) 500 to 5000 nM.
The corresponding values for `CCOc1ccc([C@H](COC)NC(=O)C2CC23CCc2ccc(F)cc23)cc1` (single isomer, unassigned) [Example A3] are 700 nM and 500 to 5000 nM.
The corresponding values for `CCOc1ccc([C@H](COC)NC(=O)C2CC23CCCc2ccccc23)cc1` (single isomer, unassigned) [Example B1] are 740 nM and 500 to 5000 nM.
Regarding `CCOc1ccc([C@H](COC)NC(=O)C2CC23CCc2cc(F)ccc23)cc1` (single isomer, unassigned; diastereomer b) [Example 4], the EC50 is 590 nM (read-out: a7 nAChR EC50) and 500 to 5000 nM (read-out: α7 nAChR Potency).
Turning to `CCOc1ccc([C@H](COC)NC(=O)C2CC23COc2ccc(F)cc23)cc1` (single isomer, unassigned; diastereomer d) [Example 5], the EC50 reads like this: (read-out: a7 nAChR EC50) 480 nM; (read-out: α7 nAChR Potency) 100 to 500 nM.
Turning to `CCOc1ccc([C@H](COC)NC(=O)C2CC23COc2ccc(F)cc23)cc1` (stereo in doubt) [Example A10, cis-N-[(1R)-1-(4-Ethoxyphenyl)-2-methoxyethyl]-5-fluoro-2H-spiro[I-benzofuran-3,1′-cyclopropane]-2′-carboxamide], the EC50 (read-out: α7 nAChR Potency) was in the range of 500 to 5000 nM.
For the molecule `CCOc1ccc([C@@H](NC(=O)C2CC23COc2ccc(F)cc23)C(F)F)cn1` (stereo in doubt) [Example A12, cis-N-[(1R)-1-(6-Ethoxypyridin-3-yl)-2,2-difluoroethyl]-5-fluoro-2H-spiro[1-benzofuran-3,1′-cyclopropane]-2′-carboxamide], the EC50 runs as follows: (read-out: a7 nAChR EC50) 3000 nM; (read-out: α7 nAChR Potency) 500 to 5000 nM.
The corresponding values for `CCOc1ccc([C@H](CF)NC(=O)C2CC23COc2ccc(F)cc23)cn1` (stereo in doubt) [Example A13, cis-N-[(1R)-1-(6-Ethoxypyridin-3-yl)-2-fluoroethyl]-5-fluoro-2H-spiro[1-benzofuran-3,1′-cyclopropane]-2′-carboxamide] are 790 nM and 500 to 5000 nM.
With `O=C(N[C@@H](C(F)F)C1CCCCC1)C1CC12COc1ccc(F)cc12` (stereo in doubt) [Example A14, cis-N-[(1R)-1-Cyclohexyl-2,2-difluoroethyl]-5-fluoro-2H-spiro[1-benzofuran-3,1′-cyclopropane]-2′-carboxamide], the EC50 (read-out: α7 nAChR Potency) was 500 to 5000 nM.
`O=C(N[C@@H](CO)C1CCCCC1)C1CC12COc1ccc(F)cc12` (stereo in doubt) [Example A15, cis-N-[ (1R)-1-Cyclohexyl-2-hydroxyethyl]-5-fluoro-2H-spiro[1-benzofuran-3,1′-cyclopropane]-2′-carboxamide]: the EC50 was 770 nM (read-out: a7 nAChR EC50) and 500 to 5000 nM (read-out: α7 nAChR Potency).
Taken in the same sequence, the figures for `CCOc1ccc([C@H](COC)NC(=O)[C@@H]2C[C@]23CCc2ccccc23)cc1` [Example 3, (1R,2R)-N-[ (1R)-1-(4-Ethoxyphenyl)-2-Methoxy-Ethyl]-2′,3′-Dihydrospiro[Cyclopropane-1,1′-Indene]-2-Carboxamide] were 690 nM and 500 to 5000 nM.
The corresponding values for `O=C(N[C@@H](CO)C1CCCCC1)C1CC12CCc1ccc(F)cc12` (stereo partly drawn) [Example A4, N-[(1R)-1-Cyclohexyl-2-hydroxyethyl]-6′-fluoro-2′, 3′-dihydrospiro[cyclopropane-1,1′-indene]-2-carboxamide] are 1200 nM and 500 to 5000 nM.
The corresponding values for `CCOc1ccc([C@H](CO)NC(=O)C2CC23CCc2ccc(F)cc23)cn1` (stereo partly drawn) [Example A5, N-[(1R)-1-(6-Ethoxypyridin-3-yl)-2-hydroxyethyl]-6′-fluoro-2′, 3′-dihydrospiro[cyclopropane-1,1′-indene]-2-carboxamide] are 1400 nM and 500 to 5000 nM.
Take `O=C(NC1(c2ccc(F)cc2)COC1)C1CC12CCc1ccc(F)cc12` (centres unmarked) [Example A6]: the EC50 (read-out: α7 nAChR Potency) fell in the range of 500 to 5000 nM.
As for `O=C(N[C@@H](C(F)F)C1CCCCC1)C1CC12CCc1ccc(F)cc12` (stereo partly drawn) [Example A7, N-[(1R)-1-Cyclohexyl-2,2-difluoroethyl]-6′-fluoro-2′, 3′-dihydrospiro[cyclopropane-1,1′-indene]-2-carboxamide], the EC50 (read-out: α7 nAChR Potency) was in the range of 500 to 5000 nM.
Consider `O=C(N[C@@H](CO)C1CCCCC1)C1CC12COc1ccccc12` (some centres unmarked) [Example A8], for which the EC50 is 630 nM (read-out: a7 nAChR EC50) and 500 to 5000 nM (read-out: α7 nAChR Potency).
With `O=C(NC1(c2ccc(F)cc2)COC1)C1CC12COc1ccccc12` (centres unmarked) [Example A9, N-[3-(4-Fluorophenyl)oxetan-3-yl]-2H-spiro[1-benzofuran-3,1′-cyclopropane]-2′-carboxamide], the EC50 runs as follows: (read-out: a7 nAChR EC50) 1100 nM; (read-out: α7 nAChR Potency) 500 to 5000 nM.
Taken in the same sequence, the figures for `CCOc1ccc(C(CO)NC(=O)C2CC23COc2ccc(F)cc23)cn1` [Example A11, cis-N-[ (1R)-1-(6-Ethoxypyridin-3-yl)-2-hydroxyethyl]-5-fluoro-2H-spiro[1-benzofuran-3,1′-cyclopropane]-2′-carboxamide] were 5800 nM and 5000 to 50000 nM.
The corresponding values for `COc1cc(C2(NC(=O)C3CC34COc3ccc(F)cc34)CC2)ccn1` (stereo not drawn) [Example A17, cis-S-Fluoro-N-[1-(2-methoxypyridin-4-vl)cyclopropyl]-2H-spiro[1-benzofuran-3,1′-cyclopropane]-2′-carboxamide] are 2300 nM and 500 to 5000 nM.
